Test results as given in US12180191B1, “2-[(1H-benzimidazol-2-yl)imino]-5,5-diphenylimidazolidin-4-one as an antimicrobial compound” (KING FAISAL UNIVERSITY, priority 2023, dated 2024).

Columns and labels:
Format in all cases: cell-based
[1] = test system: Staphylococcus aureus; test: Agar plate disc-diffusion, antibacterial inhibition zone; conditions: nutrient agar, 37° C., 48 hours
Protocol: (§1) The agar plate disc-diffusion method was applied. Sterilized filter papers (6 mm in diameter) were wetted with 10 μL of a solution of 2-[(1H-benzimidazol-2-yl)imino]-5,5-diphenylimidazolidin-4-one (3) to be tested, containing 10 mg/mL in DMSO, and the discs were allowed to air dry. The discs were then placed onto the surface of agar plates (nutrient agar for bacteria and Sabouraud's dextrose agar for fungi) seeded with the test organism. Each plate contained 15 mL of the agar medium, previously seeded with 0.2 mL of the broth culture of each organism pregrown for 18 hours. The plates were incubated at 37° C. for 48 hours, and 72 hours for fungi. The inhibition zones were measured in millimeter. Discs impregnated with DMSO were used as a control, and its inhibition zone was subtracted from the tested compound actual inhibition zone.
(§2) The results of the antimicrobial testing can be observed in Tables 1 and 2, below, with ciprofloxacin serving as a reference.

[2] = test system: Aspergillus flavus; test: Agar plate disc-diffusion, antifungal inhibition zone; conditions: Sabouraud's dextrose agar, 72 hours
Protocol: as §1, §2

[3] = test system: Chrysosporium keratinophilum; test: as above; conditions: Sabouraud's dextrose agar, 72 hours
Protocol: as §1, with “Sterilized filter papers (6 mm in diameter) were wetted with 10 μL of a solution of 2-[(1H-benzimidazol-2-yl)imino]-5,5-diphenylimidazolidin-4-one (3) to be tested, containing 10 mg/mL in DMSO, and the discs were allowed to air dry.” left out
as §2

[4] = test system: Bacillus cereus; test: Agar plate disc-diffusion, antibacterial inhibition zone; conditions: nutrient agar, 37° C., 48 hours
Protocol: as §1, with “Sterilized filter papers (6 mm in diameter) were wetted with 10 μL of a solution of 2-[(1H-benzimidazol-2-yl)imino]-5,5-diphenylimidazolidin-4-one (3) to be tested, containing 10 mg/mL in DMSO, and the discs were allowed to air dry.” left out
as §2

[5] = test system: Escherichia coli; test: as above; conditions: nutrient agar, 37° C., 48 hours
Protocol: as §1, with “Sterilized filter papers (6 mm in diameter) were wetted with 10 μL of a solution of 2-[(1H-benzimidazol-2-yl)imino]-5,5-diphenylimidazolidin-4-one (3) to be tested, containing 10 mg/mL in DMSO, and the discs were allowed to air dry.” left out
as §2

[6] = test system: Pseudomonas aeruginosa; test: as above; conditions: nutrient agar, 37° C., 48 hours
Protocol: as §1, with “Sterilized filter papers (6 mm in diameter) were wetted with 10 μL of a solution of 2-[(1H-benzimidazol-2-yl)imino]-5,5-diphenylimidazolidin-4-one (3) to be tested, containing 10 mg/mL in DMSO, and the discs were allowed to air dry.” left out
as §2

[7] = A = concentration of comp. = 10,000 μL
[8] = B = concentration of comp. = 30.000 μL
[9] = C = concentration of comp. = 50,000 μL

Row | Structure (SMILES) | inhibition zone, Staphylococcus aureus [1, 7] [millimeter] | inhibition zone, Staphylococcus aureus [1, 8] [millimeter] | inhibition zone, Staphylococcus aureus [1, 9] [millimeter] | inhibition zone, Aspergillus flavus [2, 7] [millimeter] | inhibition zone, Aspergillus flavus [2, 8] [millimeter] | inhibition zone, Aspergillus flavus [2, 9] [millimeter] | inhibition zone, Chrysosporium keratinophilum [3, 7] [millimeter] | inhibition zone, Chrysosporium keratinophilum [3, 8] [millimeter] | inhibition zone, Chrysosporium keratinophilum [3, 9] [millimeter] | inhibition zone, Bacillus Cereus [4, 7] [millimeter] | inhibition zone, Bacillus Cereus [4, 8] [millimeter] | inhibition zone, Bacillus Cereus [4, 9] [millimeter] | inhibition zone, Escherichia coli [5, 7] [millimeter] | inhibition zone, Escherichia coli [5, 8] [millimeter] | inhibition zone, Escherichia coli [5, 9] [millimeter] | inhibition zone, Pseudomonas aeruginosa [6, 7] [millimeter] | inhibition zone, Pseudomonas aeruginosa [6, 8] [millimeter] | inhibition zone, Pseudomonas aeruginosa [6, 9] [millimeter]
1 | O=C(O)c1cn(C2CC2)c2cc(N3CCNCC3)c(F)cc2c1=O [Cip., ciprofloxacin] | 42 | 44 | 53 | 29 | 30 | 42 | 29 | 30 | 53 | 29 | 31 | 42 | 30 | 39 | 60 | 29 | 30 | 53
2 | O=C1N/C(=N/c2nc3ccccc3[nH]2)NC1(c1ccccc1)c1ccccc1 [Compound 3, 2-[(1H-benzimidazol-2-yl)imino]-5,5-diphenylimidazolidin-4-one] | 16 | 20 | 30 | 18 | 23 | 35 | 24 | 29 | 49 | 18 | 24 | 38 | 27 | 36 | 50 | 25 | 32 | 43
